Experimental data as given in paper PMC12220852, “An adamantane‐based ligand as a novel chemical tool for thermosensory TRPM8 channel therapeutic modulation” (The Febs Journal, 2025).

Assays:
[1] = biological target: T1, neuronal TRPM8 channels (mTRPM8) in dorsal root ganglion neurons (Mus musculus, UniProt Q8R4D5); assay: Patch-clamp of WS-12-evoked currents in primary DRG nociceptor cultures; format: cell-based, murine; settings: WS-12 evoked current, −60 mV, N = 3, n = 8; read-out: IC50 of mTRPM8 current blockade in DRG neurons
T1 construct: neuronal TRPM8 channels expressed in murine primary nociceptor cultures; endogenous in cells; host or cells: primary cultures of mouse dorsal root ganglion neurons
From the text: To examine the in vivo activity of compound 23, we first investigated its inhibitory potency on neuronal TRPM8 channels expressed in murine primary nociceptor cultures by patch‐clamp. […] Alternatively, it could also be due to distinct gating mechanisms of both orthologs or the influence of the neuronal environment.
Primary cultures of neonatal dorsal root ganglia were used for multielectrode array (MEA) and patch‐clamp experiments following established methodologies previously described. Neonatal dorsal root ganglia (DRGs) were obtained from Wistar rats (3–5 days old) and were isolated and digested with 0.25% (w/v) collagenase (type IA) in DMEM GlutaMax with 1% (v/v) penicillin/streptomycin (P/S) solution for 1 h at 37 °C in a 5% CO2 Thermo Scientific incubator. Following digestion, DRGs were mechanically dissociated and passed through a 100 μm cell strainer to obtain single‐cell suspensions. Suspensions were washed with DMEM GlutaMax with 10% (v/v) fetal bovine serum (FBS) and 1% (v/v) penicillin/streptomycin (P/S). Cells were then seeded in microelectrode array chambers coated with poly‐L‐lysine (8.3 μg·mL^−1) and laminin (5 μg·mL^−1). After 1 h, the medium was replaced with DMEM GlutaMax, 10% (v/v) FBS, and 1% (v/v) P/S, supplemented with mouse 2.5S NGF 50 ng·mL^−1 and 1.25 μg·mL^−1 cytosine arabinoside. […]

[2] = Metabolic stability in mouse plasma; format: in vitro ADME; settings: after 1 h at 37 °C, 100 μM substrate
Experimental: Because of the lack of systemic activity of compound 23, we evaluated the in vitro plasmatic and hepatic metabolic stability. To this aim, compound 23 was exposed to mouse plasma and mouse liver microsome (MLM) fractions, and the residual substrate was measured after 1 h. Under these conditions, the residual substrate was about 97% and 90% in plasma and microsomes, respectively, denoting that this molecule suffers from mild hydrolysis of the ester group.
The standard incubation mixture (100 μL final volume) was carried out by dissolving the tested substrate (100 μM) in DMSO (5% final volume) in preincubated plasma at 37 °C. The mixture was shaken for 60 min at 37 °C. Control incubations were carried out without substrate. Each incubation was stopped by addition of 200 μL of ice‐cold acetonitrile, vortexed, and centrifuged at 13 000 r.p.m. for 10 min. The supernatants were analyzed by LC‐UV [68].
The metabolic stability of the compound 23 was determined in vitro by measuring the residual peak area after incubation by LC‐UV analysis. Samples were further processed by LC‐HRMS equipment for metabolite profiling. Raw data files were processed using both XCALIBUR® and COMPOUND DISCOVERER 3.2® software (Thermo Scientific) using a customized workflow for the detection and identification of the expected and unknown metabolites (Fig. S80).

T1 sequence (Q8R4D5 whole entry): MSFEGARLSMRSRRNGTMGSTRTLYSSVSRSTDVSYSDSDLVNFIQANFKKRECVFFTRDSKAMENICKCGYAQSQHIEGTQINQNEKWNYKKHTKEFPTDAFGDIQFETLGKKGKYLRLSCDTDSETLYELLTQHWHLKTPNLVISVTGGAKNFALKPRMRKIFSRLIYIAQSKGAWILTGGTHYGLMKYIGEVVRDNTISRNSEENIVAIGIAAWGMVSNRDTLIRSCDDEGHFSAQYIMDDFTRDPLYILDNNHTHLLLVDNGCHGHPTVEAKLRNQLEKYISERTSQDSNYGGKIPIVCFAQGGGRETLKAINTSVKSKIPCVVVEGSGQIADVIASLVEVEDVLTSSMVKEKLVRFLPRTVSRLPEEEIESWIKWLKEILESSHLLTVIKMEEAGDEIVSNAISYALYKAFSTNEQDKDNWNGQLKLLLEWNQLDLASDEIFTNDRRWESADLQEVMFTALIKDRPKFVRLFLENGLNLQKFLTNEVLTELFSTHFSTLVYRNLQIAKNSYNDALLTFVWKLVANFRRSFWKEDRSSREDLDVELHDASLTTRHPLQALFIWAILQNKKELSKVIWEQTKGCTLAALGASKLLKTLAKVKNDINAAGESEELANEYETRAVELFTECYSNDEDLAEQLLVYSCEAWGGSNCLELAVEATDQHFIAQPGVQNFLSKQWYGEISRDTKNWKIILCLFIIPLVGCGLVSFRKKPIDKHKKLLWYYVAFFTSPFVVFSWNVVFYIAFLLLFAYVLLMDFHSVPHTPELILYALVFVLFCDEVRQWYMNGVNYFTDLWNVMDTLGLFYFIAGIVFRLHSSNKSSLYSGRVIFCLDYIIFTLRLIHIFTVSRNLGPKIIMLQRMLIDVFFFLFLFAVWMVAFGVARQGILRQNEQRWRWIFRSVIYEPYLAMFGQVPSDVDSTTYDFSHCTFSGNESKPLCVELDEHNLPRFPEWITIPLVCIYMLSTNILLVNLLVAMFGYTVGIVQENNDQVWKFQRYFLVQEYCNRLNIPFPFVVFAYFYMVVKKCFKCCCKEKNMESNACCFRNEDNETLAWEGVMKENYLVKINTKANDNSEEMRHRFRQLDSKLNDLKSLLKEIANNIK

- IC50 [1]: 430 ± 750 nM
- residual substrate in mouse plasma [2]: about 97%
SMILES: O=C(COC(=O)c1ccccc1-c1ccccc1)NC12CC3CC(CC(C3)C1)C2 [Compound 23, 2‐((3S,5S,7S)‐adamantan‐1‐ylamino)‐2‐oxoethyl [1,1′‐biphenyl]‐2‐carboxylate]
